Source: US20240336660A1 (priority 2021, published 2024)
*: point of attachment. Decanoyl = CCCCCCCCCC(=O)*; CH2Cl = ClC*

How the values were obtained:
Htet1/SD614G cells = format: cell-based, human; details: for effect on trafficking of Spike to lysosomes: 20 hours, 50 μM dynasore, 20 μM pitstop2, 1 μM nocodazole, 43 nM bafilomycin
[1] = tested on: doxycycline-induced Htet1/SW1 cells; format: cell-based, human

| Molecule | effect on trafficking of Spike to lysosomes (Htet1/SD614G cells) | also measured |
| --- | --- | --- |
| O=C(N/N=C/c1ccc(O)c(O)c1)c1cc2ccccc2cc1O [dynasore] | Neither had a noticeable impact on the trafficking of Spike to lysosomes | – |
| COC(=O)Nc1nc2ccc(C(=O)c3cccs3)cc2[nH]1 [nocodazole] | had no effect | – |
| O=C1NC(=NS(=O)(=O)c2cccc3ccccc23)S/C1=C\c1ccc(Br)cc1 [pitstop2] | Neither had a noticeable impact on the trafficking of Spike to lysosomes | – |
| Decanoyl-RVKR-CH2Cl | – | effect on Spike cell surface expression and furin-mediated processing [1]: reduced Spike's cell surface expression and furin-mediated processing |
| bafilomycin | redirected Spike into the Golgi and plasma membranes, preventing its accumulation in lysosomes | – |
| vacuolin-1 | – | Spike localization after vacuolin-1 treatment (Htet1/SD614G cells; vacuolin-1 10 μg/ml for three hours): Spike localization to lysosome membranes was also apparent |
